From PMC13422867, “An orally available PfPKG inhibitor blocks Plasmodium’s infection of the liver” (PLOS Pathogens, 2026)

Key:
[1] = tested on: mutant P. falciparum parasites carrying a Thr618Gln substitution; details: cited from earlier work
ROCK2 = biological target: T1, ROCK2 (Homo sapiens, UniProt O75116); assay: KdElect binding affinity assay; details: read-out: ROCK2 Experimental Kd
T1 construct: purchased Eurofins (DiscoverX)
Procedure: (§1) Off-target kinase inhibition was assessed using the DiscoverX scanMAX (Eurofins) panel at 1 µM compound concentration. Binding affinities of CIT, ROCK1 and ROCK2 were evaluated using the KdElect assay (Eurofins).

CIT = biological target: T2, CIT (Homo sapiens, UniProt O14578); assay: KdElect binding affinity assay; details: read-out: CIT Experimental Kd
T2 construct: purchased Eurofins (DiscoverX)
T2 sequence (O14578 whole entry): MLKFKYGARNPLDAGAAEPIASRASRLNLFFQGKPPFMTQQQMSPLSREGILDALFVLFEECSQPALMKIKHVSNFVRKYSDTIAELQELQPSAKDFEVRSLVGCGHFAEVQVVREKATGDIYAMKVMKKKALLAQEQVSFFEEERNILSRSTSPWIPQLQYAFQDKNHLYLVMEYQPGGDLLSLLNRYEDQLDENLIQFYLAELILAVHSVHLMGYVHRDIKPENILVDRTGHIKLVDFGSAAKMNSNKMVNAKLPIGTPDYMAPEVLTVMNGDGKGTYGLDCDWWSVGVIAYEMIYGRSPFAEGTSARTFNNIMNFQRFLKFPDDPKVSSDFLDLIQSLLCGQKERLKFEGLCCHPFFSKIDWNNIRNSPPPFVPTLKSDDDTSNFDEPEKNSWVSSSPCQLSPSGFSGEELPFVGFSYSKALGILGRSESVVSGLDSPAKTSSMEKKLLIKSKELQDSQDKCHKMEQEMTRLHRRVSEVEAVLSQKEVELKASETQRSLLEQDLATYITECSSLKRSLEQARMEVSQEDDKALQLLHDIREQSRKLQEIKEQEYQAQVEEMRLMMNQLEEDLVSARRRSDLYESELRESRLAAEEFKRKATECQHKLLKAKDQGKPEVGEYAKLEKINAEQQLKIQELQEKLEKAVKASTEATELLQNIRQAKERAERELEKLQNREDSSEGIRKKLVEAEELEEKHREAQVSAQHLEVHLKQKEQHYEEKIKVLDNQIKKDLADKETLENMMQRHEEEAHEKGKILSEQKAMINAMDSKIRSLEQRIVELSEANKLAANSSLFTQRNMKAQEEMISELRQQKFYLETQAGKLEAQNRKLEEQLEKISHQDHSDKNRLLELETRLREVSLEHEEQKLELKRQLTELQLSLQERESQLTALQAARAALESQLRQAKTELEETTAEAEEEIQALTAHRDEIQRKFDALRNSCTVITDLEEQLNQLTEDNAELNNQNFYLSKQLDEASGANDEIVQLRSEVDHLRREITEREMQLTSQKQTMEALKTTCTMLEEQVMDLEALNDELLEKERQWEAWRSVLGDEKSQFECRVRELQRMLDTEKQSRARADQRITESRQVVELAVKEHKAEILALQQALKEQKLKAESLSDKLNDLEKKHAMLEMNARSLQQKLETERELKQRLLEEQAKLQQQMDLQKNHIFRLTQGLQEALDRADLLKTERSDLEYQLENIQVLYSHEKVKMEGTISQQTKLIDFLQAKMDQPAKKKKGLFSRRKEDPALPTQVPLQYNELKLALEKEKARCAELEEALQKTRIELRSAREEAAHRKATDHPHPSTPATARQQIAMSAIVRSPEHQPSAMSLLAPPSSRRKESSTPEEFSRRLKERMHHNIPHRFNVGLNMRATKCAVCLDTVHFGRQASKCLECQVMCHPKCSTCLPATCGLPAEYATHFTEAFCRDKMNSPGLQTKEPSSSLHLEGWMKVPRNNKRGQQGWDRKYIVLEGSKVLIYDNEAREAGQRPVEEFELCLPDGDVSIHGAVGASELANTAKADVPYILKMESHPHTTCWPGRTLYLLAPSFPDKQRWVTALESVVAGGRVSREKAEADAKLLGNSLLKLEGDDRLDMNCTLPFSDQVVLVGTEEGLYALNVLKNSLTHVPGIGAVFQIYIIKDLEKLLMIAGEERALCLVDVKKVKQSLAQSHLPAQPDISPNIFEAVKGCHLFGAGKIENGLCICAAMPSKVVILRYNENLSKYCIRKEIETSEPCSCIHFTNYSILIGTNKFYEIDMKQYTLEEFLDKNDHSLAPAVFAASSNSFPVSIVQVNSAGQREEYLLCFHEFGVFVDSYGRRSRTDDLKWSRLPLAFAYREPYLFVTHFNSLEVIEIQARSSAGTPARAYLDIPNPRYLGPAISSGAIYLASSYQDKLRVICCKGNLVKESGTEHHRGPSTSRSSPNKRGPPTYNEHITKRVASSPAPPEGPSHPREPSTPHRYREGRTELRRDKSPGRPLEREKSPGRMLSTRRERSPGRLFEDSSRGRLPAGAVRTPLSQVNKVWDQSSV
Procedure: as §1

P. cynomolgi schizont = assay: Schizont formation in primary simian hepatocytes, high-content imaging; type: cell-based, Plasmodium cynomolgi; details: Plasmodium cynomolgi, Hepatocyte
Procedure: (§2) Liver stage antimalarial activity was evaluated using sporozoites from P. falciparum (NF54 strain) and P. cynomolgi bastianellii (B strain). P. falciparum-infected Anopheles stephensi mosquitoes were reared at WRAIR, while P. cynomolgi-infected Anopheles dirus mosquitoes were obtained from the Armed Forces Research Institute of Medical Sciences (AFRIMS), Thailand. Sporozoites were isolated by dissecting salivary glands under sterile conditions, followed by gentle mechanical disruption. Freshly isolated sporozoites were immediately used for hepatocyte infection.
Primary cryopreserved hepatocytes were selected based on host-parasite compatibility: primary simian hepatocytes (lot OQB) for P. cynomolgi and human hepatocytes (lot BGW) for P. falciparum (BioIVT Inc., Baltimore, MD, USA). Cells were thawed according to the manufacturer’s protocol and seeded into 384-well collagen-coated assay plates (Greiner Bio-One, Monroe, NC, USA) using InVitroGro CP plating medium (BioIVT). Seeding densities were optimized for uniform monolayer formation, and hepatocytes were allowed to adhere for 24–48 hours before infection. Sporozoites were added at a 1:1.1 hepatocyte-to-sporozoite ratio within 48 hours post-seeding. Automated robotic systems were used for media changes and compound additions to ensure assay consistency and minimize variability associated with manual pipetting.
Test compounds (PfPKG inhibitors) and assay drug controls (KDU-691 and tafenoquine) were solubilized in DMSO or PBS and serially diluted into 8- or 12-point, 2- or 3-fold series, achieving final assay concentrations ranging from 20 µM to 0.019 µM. Compounds were introduced using a calibrated pin tool controlled by robotic arms (V&P Scientific), ensuring a 1:1000 dilution into assay wells. Media were replenished daily with fresh drug-containing HCM. […]
(§3) Cells were fixed using 4% paraformaldehyde for 20 minutes at room temperature, followed by three PBS washes, and stored at 4°C until further processing. Parasite detection was performed using species-specific primary antibodies, with P. cynomolgi parasites labeled using a mouse monoclonal anti-Plasmodium GAPDH antibody (1.6 μg/mL, European Malaria Reagent Repository) and P. falciparum parasites detected using a rabbit polyclonal anti-PfHSP70 antibody (1:70 dilution, LS Bio, USA). […]
High-content imaging was performed using the Operetta CLS system (Revvity) and image analysis was performed with Harmony software version 4.9 (Revvity, Waltham, MA, USA). Images were acquired at 10x or 20x magnification using DAPI and TRITC fluorescence channels. Following the established protocol, parasites were classified as hypnozoites or schizonts based on fluorescence intensity (mean and maximum), morphological features (cell roundness and size), and segmentation criteria. […]

[2] = tested on: P. falciparum sporozoites; assay: Sporozoite infection of primary human hepatocytes, high-content imaging; type: cell-based, Plasmodium falciparum; details: Plasmodium falciparum, Hepatocyte
Procedure: as §2, with “infection. […]” for “infection.”
as §3
High-content imaging was performed using the Operetta CLS system (Revvity) and image analysis was performed with Harmony software version 4.9 (Revvity, Waltham, MA, USA). Images were acquired at 10x or 20x magnification using DAPI and TRITC fluorescence channels. […]

T1 sequence (O75116 whole entry): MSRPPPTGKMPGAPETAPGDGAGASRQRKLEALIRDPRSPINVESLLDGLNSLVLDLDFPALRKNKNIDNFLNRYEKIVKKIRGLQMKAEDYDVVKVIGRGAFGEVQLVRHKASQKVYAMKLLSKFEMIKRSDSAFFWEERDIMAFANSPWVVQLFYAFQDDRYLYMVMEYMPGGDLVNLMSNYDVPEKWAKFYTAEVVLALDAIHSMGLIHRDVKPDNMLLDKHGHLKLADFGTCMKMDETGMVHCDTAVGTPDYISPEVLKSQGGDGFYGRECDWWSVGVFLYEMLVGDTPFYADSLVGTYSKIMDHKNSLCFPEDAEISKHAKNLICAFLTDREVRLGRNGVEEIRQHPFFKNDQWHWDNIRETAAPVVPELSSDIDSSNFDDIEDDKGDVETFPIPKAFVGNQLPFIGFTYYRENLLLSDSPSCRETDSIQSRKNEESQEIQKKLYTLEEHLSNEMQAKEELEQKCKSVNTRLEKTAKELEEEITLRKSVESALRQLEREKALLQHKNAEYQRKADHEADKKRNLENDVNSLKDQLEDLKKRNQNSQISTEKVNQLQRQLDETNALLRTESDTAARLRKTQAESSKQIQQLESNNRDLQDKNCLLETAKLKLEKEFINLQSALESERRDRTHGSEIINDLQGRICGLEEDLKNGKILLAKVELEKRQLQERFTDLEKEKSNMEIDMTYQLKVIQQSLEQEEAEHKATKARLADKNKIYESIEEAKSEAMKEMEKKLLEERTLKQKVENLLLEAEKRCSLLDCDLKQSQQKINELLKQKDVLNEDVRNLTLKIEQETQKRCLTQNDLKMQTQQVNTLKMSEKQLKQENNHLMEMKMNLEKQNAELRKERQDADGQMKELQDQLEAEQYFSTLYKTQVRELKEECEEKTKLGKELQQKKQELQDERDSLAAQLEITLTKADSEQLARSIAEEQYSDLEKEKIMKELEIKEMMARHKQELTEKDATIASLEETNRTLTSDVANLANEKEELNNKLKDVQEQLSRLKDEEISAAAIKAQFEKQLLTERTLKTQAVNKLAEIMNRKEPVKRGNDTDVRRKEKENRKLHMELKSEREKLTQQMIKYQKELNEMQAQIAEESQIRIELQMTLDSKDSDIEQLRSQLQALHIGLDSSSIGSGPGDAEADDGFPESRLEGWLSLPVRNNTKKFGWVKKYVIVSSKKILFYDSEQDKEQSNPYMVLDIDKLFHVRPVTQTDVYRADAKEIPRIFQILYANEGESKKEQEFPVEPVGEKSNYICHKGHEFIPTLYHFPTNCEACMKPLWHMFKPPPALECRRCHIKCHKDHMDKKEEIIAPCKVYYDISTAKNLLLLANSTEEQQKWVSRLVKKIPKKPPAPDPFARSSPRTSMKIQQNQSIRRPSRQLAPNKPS

C[C@@H]1CN(C)CC[C@@H]1c1cc(-c2ccncc2)c(-c2ccc(F)cc2)[nH]1.Cl.Cl [RUPB-61, 4-{5-[(3S,4S)-1,3-Dimethylpiperidin-4-yl]-2-(4-fluorophenyl)-1H-pyrrol-3-yl}pyridine Dihydrochloride]
increase in IC50 against Thr618Gln gatekeeper mutant parasites [1]: 15 fold
Kd (ROCK2): 0.013 µM
Kd (CIT): 0.0052 µM
IC50 (P. cynomolgi schizont): 0.17 µM
IC50 [2]: 0.079 µM
